Consider one compound from the NIST ThermoML archive (doi:10.1021/je300768j).

For this data set the following is noted: DTA.

Structures are written as SMILES. ± gives the expanded uncertainty stated by the source.

In the case of `CC(=O)[O-].CCn1cc[n+](C)c1` [1-ethyl-3-methylimidazolium acetate], the Glass transition temperature was -75.50 ± 3 °C.
